Measurements published in US9987381B2, “Radioligands for imaging the LPA-1 receptor” (BRISTOL-MYERS SQUIBB COMPANY, priority 2013, dated 2018).
Blank lines part the entries; values can stand above or below the molecule they belong to.

How the values were obtained:
[1] = target: T1, LPA1 receptor (Mus musculus, UniProt P61793); test: In vitro autoradiography of mouse lung sections: [18F] radioligand binding and displacement by blocking compound; conditions: for displacement of [18F] radioligand vs total binding: 3.9 nM radioligand
T1 construct: Fresh tissues from naïve mouse lungs and bleomycin treated lungs were immersed into OCT; from tissue; host or cells: lung sections (10 µm) of naïve and bleomycin-treated female C57BL/6 mice
T1 sequence (P61793 whole entry): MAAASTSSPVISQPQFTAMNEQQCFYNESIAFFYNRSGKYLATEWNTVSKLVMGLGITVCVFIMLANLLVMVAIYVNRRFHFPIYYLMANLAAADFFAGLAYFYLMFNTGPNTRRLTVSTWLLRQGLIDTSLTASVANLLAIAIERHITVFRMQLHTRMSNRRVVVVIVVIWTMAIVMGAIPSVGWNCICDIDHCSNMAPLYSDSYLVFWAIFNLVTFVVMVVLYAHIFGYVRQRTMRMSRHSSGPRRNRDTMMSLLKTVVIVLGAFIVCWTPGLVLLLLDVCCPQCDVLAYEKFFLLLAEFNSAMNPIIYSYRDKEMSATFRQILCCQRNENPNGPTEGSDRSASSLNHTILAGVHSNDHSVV
Description: The naïve lung mouse tissues were collected from female C57BL/6 mice (8-10 weeks old; 18-25 grams), the samples were stored in −80° C. degree freezer until use. The bleomycin treated animals consists of female C57BL/6 mice (8-10 weeks old; 18-25 grams) were anesthetized with 5% isoflurane the day before study initiation. Bleomycin was dissolved into sterile phosphate buffered saline to a concentration of 500 μg/ml. For injection, mice were anesthetized with 5% isoflurane and using a 1 cc syringe with a 27 g needle, 100 μl of the stock bleomycin solution was injected subcutaneously (SC) into the center of each shaved region (50 μg/site). The bleomycin was administered 5 days/week, Monday through Friday, and was injected into the same region each day until Day 28. Specifically the left lobe of lung was harvested and inflated using a 1:1 OCT (which consists of a mixture 10.24% w/w polyvinyl alcohol 4.26% w/w polyethylene glycol 85.50 w/w non-reactive ingredients)/phosphate buffered saline mixture.
Fresh tissues from naïve mouse lungs and bleomycin treated lungs were immersed into OCT and chilled in 2-methylbutane for 2-5 minutes until frozen. The tissues were then wrapped in foil/ZIPLOC® bag and stored at −80° C. Tissue sections of 10 μm thickness (collected as 2 sections/slide) were cut using a cryostat and thaw-mounted on glass microscope slides, allowed to air dry for approximately 30 minutes. Blocking studies with 1-(4′-(3-methyl-4-(((l-phenylethoxy)carbonyl)amino)isoxazol-5-yl)-[1,1′-biphenyl]-4-yl)cyclopropanecarboxylic acid at 0.1 nM, 1 nM and 10 nM respectively were conducted using the following conditions. The individual slides, 4 slides per concentration, were pre-incubated in a mixture of 50 mM Hepes, […], pH=7.4 and 0.05% Tween-20 buffer solution that contains only this buffer (total binding), as well as […] 1-(4′-(3-methyl-4-(((l-phenylethoxy)carbonyl)amino)isoxazol-5-yl)-[1,1′-biphenyl]-4-yl)cyclopropanecarboxylic acid, 1 nM 1-(4′-(3-methyl-4-(((1-phenylethoxy)carbonyl)amino)isoxazol-5-yl)-[1,1′-biphenyl]-4-yl)cyclopropanecarboxylic acid and 10 nM 1-(4′-(3-methyl-4-(((1-phenylethoxy)carbonyl)amino)isoxazol-5-yl)-[1,1′-biphenyl]-4-yl)cyclopropanecarboxylic acid for a 3 hour period. These individual slides were then incubated in the buffer solution containing 3.9 nM of [^18F]-1-(4′-(4-((((3-(fluoromethyl)benzyl)oxy)carbonyl)amino)-3-methylisoxazol-5-yl)-[1,1′-biphenyl]-4-yl)cyclopropanecarboxylic acid that was formulated in 10% ethanol 90% 0.5% sodium bicarbonate. This solution was diluted with 300 ml of buffer solution to generate a stock solution. From this stock solution, 40 ml was added to each incubation chamber. One of these chambers contained only the radioligand buffer solution, which is referred to as the total binding section. An additional 40 ml was added to each incubation chamber along with the relevant concentration of blocking compound (1-(4′-(3-methyl-4-(((1-phenylethoxy)carbonyl)amino)isoxazol-5-yl)-[1,1′-biphenyl]-4-yl)cyclopropanecarboxylic acid at 0.1 nM, 1 nM, 10 nM). Then the individual slides were incubated in the buffer solution containing the [^18F]-1-(4′-(4-((((3-(fluoromethyl)benzyl)oxy)carbonyl)amino)-3-methylisoxazol-5-yl)-[1,1′-biphenyl]-4-yl)cyclopropanecarboxylic acid radioligand and blocking compound for 1.5 hours at room temperature to reach maximum binding. After 4.5 hours of total incubation, slides from each treatment group were removed from the incubation solutions and placed in an ice-cold wash buffer (50 mM Hepes, 100 mM NaCl, and 0.05% Tween-20, pH=7.4) and rinsed 4 times. Slides were then dried under a stream of cold air for approximately 1 hour. The air-dried slides were exposed by placing the slides onto an imaging plate (BAS-SR 3545S) for 15 minutes at room temperature. The imaging plate was scanned using the bioimaging analyzer (Fujifilm Fluorescent Image Analyzer, FLA-9000). The pixel size of the autoradiogram images was 100 μm. […]

[2] = target: T2, LPA1 (Macaca mulatta, UniProt H9EN64); test: PET blocking study of [11C]-BMT-136088 with BMS-986020; format: in vivo, rhesus monkeys
T2 construct: from tissue; host or cells: lung of living anaesthetised rhesus monkeys (in vivo PET)
T2 sequence (H9EN64 1-364): as the sequence (P61793 whole entry) above, with A4I, S8I, Q22P, Y40H, V61I, D193E, H194N, V269I, N331S, N335S counted along it
Description: For the blocking data reanalyzed here, each animal was scanned twice during the administration of [^11C]-BMT-136088, using a bolus plus infusion (B+I) protocol: at baseline first, then during the administration of the blocking drug, BMS-986020, also using a bolus plus infusion protocol.
In the blocking study, BMS-986020 was administered i.v. using a 10-min bolus ([…]) followed by a ˜230 min infusion (0.25 mg/kg/hr) for a total dose of 1.224±0.015 mg/kg.
Two rhesus monkeys were included in the blocking, test-retest, and saturation studies: one male, one female; age=4.8±0.8 y; weight=8.6±0.4 kg. Studies in the same animal were separated by at least 2 weeks to allow the animal to recover from anesthesia and other effects. Four rhesus monkeys (2M, 2F) were included in the dosimetry study.
Following a low-dose, CT scan used for attenuation correction and to delineate the lung regions of interest, [^11C]-BMT-136088 was injected using a computer-control pump with a bolus plus infusion protocol, with an initial 1-min bolus and a ˜119-min infusion. The volume injected during the initial bolus represented 100 min (Kbol) worth of infusion in the blocking and test-retest study, and 300 min worth of infusion in the saturation study.
Beginning at the start of each injection, a 120-minute time-of-flight list-mode acquisition on the mCT PET/CT scanner (Siemens Medical Solutions USA, Inc.) was performed. Dynamic PET scan data were reconstructed with corrections for point-spread function, attenuation, normalization, scatter, randoms, and dead time using a 3D OP-OSEM TOF algorithm. PET images were reconstructed into 33 frames, with the following frame timing: 6×30 sec; 3×1 min; 2×2 min; 22×5 min. Each frame contained 400×400×111 (x,y,z) voxels (2.04×2.04×2.0 mm).
Blood samples for PK for each blockade study session were obtained at −1, 60, 90, 120, 150, 210, 240 and 270 minutes after the start of BMS-986020 bolus plus infusion. Red cells were precipitated at 3200 rpm for 10 minutes at 10° C.; the plasma was divided into two aliquots and frozen at −80° C. until shipped for analysis. […]

radioligand displacement (FIG. 2) ([1]; 10 nM blocking compound, naïve and bleomycin treated mouse lung sections): ~80%
displacement of [18F] radioligand vs total binding ([1]; bleomycin treated mouse lung tissue sections, 0.1 nM blocking compound): 11.3+/−4.2%
displacement of [18F] radioligand vs total binding ([1]; bleomycin treated mouse lung tissue sections, 1 nM blocking compound): 55.5+/−2.3%
displacement of [18F] radioligand vs total binding ([1]; bleomycin treated mouse lung tissue sections, 10 nM blocking compound): 82.7%+/−1.4
displacement of [18F] radioligand vs total binding ([1]; naïve mouse lung tissue sections, 0.1 nM blocking compound): 18.2+/−7.6%
displacement of [18F] radioligand vs total binding ([1]; naïve mouse lung tissue sections, 1 nM blocking compound): 57.3+/−2.6%
displacement of [18F] radioligand vs total binding ([1]; naïve mouse lung tissue sections, 10 nM blocking compound): 72.6%+/−6.7
SMILES: Cc1noc(-c2ccc(-c3ccc(C4(C(=O)O)CC4)cc3)cc2)c1NC(=O)OC(C)c1ccccc1 (centres unmarked) [1-(4′-(3-methyl-4-(((1-phenylethoxy)carbonyl)amino)isoxazol-5-yl)-[1,1′-biphenyl]-4-yl)cyclopropanecarboxylic acid]

blockade effect ([2]; VT by MA1, all corrections incl. lung density and blood radioactivity, BMS-986020 i.v. bolus plus infusion): 54±11%
occupancy of LPA1 binding ([2]; at 1.25 mg/kg): ~100%
receptor occupancy at 1.25 mg/kg ([2]; rhesus monkey, at 1.25 mg/kg, read-out: occupancy of LPA1 binding): 103 ± 20%
SMILES: Cc1noc(-c2ccc(-c3ccc(C4(C(=O)O)CC4)cc3)cc2)c1NC(=O)O[C@H](C)c1ccccc1 [BMS-986020]

localisation of radioligand binding in lung ([1]; bleomycin treated mouse lung section, trichrome collagen staining, FIG. 1): resides within positive collagen
SMILES: Cc1noc(-c2ccc(-c3ccc(C4(C(=O)O)CC4)cc3)cc2)c1NC(=O)OCc1cccc(C[18F])c1 [[^18F]-1-(4′-(4-((((3-(fluoromethyl)benzyl)oxy)carbonyl)amino)-3-methylisoxazol-5-yl)-[1,1′-biphenyl]-4-yl)cyclopropanecarboxylic acid]
